Test results from patent US20210260096A1, “PHARMACEUTICAL COMPOSITION FOR TREATING WOUND OR ACTIVATING SKIN, CONTAINING BETA-GLUCAN, GLYCITIN, AND 4',6,7-TRIMETHOXYISOFLAVONE” (Quegen Biotech Co., Ltd., priority 2018, published 2021).

How the values were obtained:
[1] = test system: human keratinocytes (HaCaTs); test: Differentiation, migration and invasion of epithelial cells under β-glucan single treatment; assay type: cell-based; details: 0.5% β-glucan among 0 to 10%; FIG. 1
Experimental: (§1) The differentiation, migration and invasion of epithelial cells, such as human keratinocytes, and the differentiation of fibroblasts according to the single treatment of β-glucan were examined. β-glucan was produced by QUEGEN BIOTECH Co., LTD and used. Human dermal fibroblasts and human keratinocytes were purchased from Korean Cell Line Bank and used. The human dermal fibroblasts (HDFs) or the human keratinocytes (HaCaTs) were seeded in a 6-well plate containing […] of 10% FBS-containing DMEM at 1×10^4 cells/well (HDF) and 5×10^4 cells/well (HaCaT), and cultured under conditions of 37° C. and 5% CO2. During culture, the concentration of the epithelial cells (HaCaTs) and the fibroblasts were treated with 200 μL of β-glucan to have a concentration of 0 to 10% in a concentration dependent manner.

[2] = test system: human dermal fibroblasts (HDFs); test: Differentiation of fibroblasts under β-glucan single treatment; assay type: cell-based; details: β-glucan 0 to 10%; FIG. 1
Experimental: as §1

HaCaTs and HDFs = test: Proliferation and migration in Transwell HaCaT/HDF co-culture by composition of mixed solution; assay type: cell-based, human; details: with respect to control PBS, 24 hours
Experimental: 5×10^4 cells/well of HaCaTs were seeded in the upper part and 1×10^4 cells/well of HDFs were seeded in the lower part of a Transwell invasion kit, […] of 10% FBS-containing DMEM and the three kinds of test solutions were treated and incubated under conditions of 37° C. and 5% CO2 for 24 hours, followed by determining an optimal concentration condition.

In the case of β-glucan, the “differentiation, migration and invasion of epithelial cells by concentration” value [1] is reported as “optimal results”, the “differentiation of the fibroblasts” value [2] is reported as “no significant change” and the “Migration (%)” value (HaCaTs and HDFs; 0.1%) is reported as 110%. The “Proliferation (%)” value (HaCaTs and HDFs; 0.1%) was 105%, the “Migration (%)” value (HaCaTs and HDFs; 0.25%) was 130% and the “Proliferation (%)” value (HaCaTs and HDFs; 0.25%) was 111%. The “Migration (%)” value (HaCaTs and HDFs; 0.5%) was 151%, the “Proliferation (%)” value (HaCaTs and HDFs; 0.5%) was 120% and the “Migration (%)” value (HaCaTs and HDFs; 0.7%) was 153%. For the same substance, the “Proliferation (%)” value (HaCaTs and HDFs; 0.7%) was 125%, the “Migration (%)” value (HaCaTs and HDFs; 1.0%) was 161% and the “Proliferation (%)” value (HaCaTs and HDFs; 1.0%) was 122%. The “Migration (%)” value (HaCaTs and HDFs; 1.5%) was 110% and the “Proliferation (%)” value (HaCaTs and HDFs; 1.5%) was 118%.
